A word on the solubility: it is how much of the substance goes into solution per volume.

We go through three molecules from patent US8217039B2, “Aprepitant polymorph mixtures” (Dr. Reddy's Laboratories Ltd., priority 2006, dated 2012).

In brackets after ≈: the same amount, converted by molar mass.

Data set [1] can be described thus: Stability studies of 50:50 intimate mixture under stress conditions (Form I to Form II ratio by XRPD). Particulars: milling, micronization, or drying at about 90° C. for prolonged periods. It is filed as physicochemical. Here is the method: Experimental conditions for performing the XRPD analysis for quantification were as follows: Process the diffraction peak for Form II≈21.15° (2θ) with constant smooth factor of 0.07 to check the detection of Form II and for the quantification of Form II the area of Form II peak and reference peak of Form I were taken. The Form I and Form II areas of two preparations of the test sample were noted. Then average the Form I and Form II areas. The percentage of Form II in Form I is calculated by the following formula: % of Form II=[(S2/S1)÷K=(S2/S1)]×100 • S1=Area of peak corresponding to Form I • S2=Area of peak corresponding to Form II K=Response constant for Form II relative to Form I. The areas of the peaks associated with Form I and Form II (characteristic peaks) were measured using Bruker X-ray diffraction evaluation software. From these areas, the response constant for Form II relative to Form I was determined. The value for the K factor was 0.32. A 50:50 weight ratio intimate mixture of aprepitant Form I and Form II prepared using the process of Example 12 was subjected to different conditions to determine the stability of the mixture under stress conditions.

For data set [2] the following is noted: 2:1 v/v methanol/water mixture at 0° C.; cited from earlier work.
For data set [3] the following is noted: cited from earlier work.

Regarding `C[C@@H](O[C@H]1OCCN(Cc2n[nH]c(=O)[nH]2)[C@H]1c1ccc(F)cc1)c1cc(C(F)(F)F)cc(C(F)(F)F)c1` [5-[[(2R,3S)-2-[(1R)-1-[3,5-bis(trifluoromethyl)phenyl]ethoxy]-3-(4-fluorophenyl)-4-morpholinyl]methyl]-1,2-dihydro-3H-1,2,4-triazol-3-one], the “conversion to Form I upon stress conditions” value in data set [1] is “does not convert to the more stable Form I”.

Take `C[C@@H](O[C@H]1OCCN(Cc2n[nH]c(=O)[nH]2)[C@H]1c1ccc(F)cc1)c1cc(C(F)(F)F)cc(C(F)(F)F)c1` [Form II, 5-[[(2R,3S)-2-[(1R)-1-[3,5-bis(trifluoromethyl)phenyl]ethoxy]-3-(4-fluorophenyl)-4-morpholinyl]methyl]-1,2-dihydro-3H-1,2,4-triazol-3-one]: in data set [2], the “numeric ratio of solubilities (Form II vs Form I)” value was 1.4 and the solubility was 1300 ± 200 µg/mL (≈ 2430 µM).

Consider `C[C@@H](O[C@H]1OCCN(Cc2n[nH]c(=O)[nH]2)[C@H]1c1ccc(F)cc1)c1cc(C(F)(F)F)cc(C(F)(F)F)c1` [Form I, 5-[[(2R,3S)-2-[(1R)-1-[3,5-bis(trifluoromethyl)phenyl]ethoxy]-3-(4-fluorophenyl)-4-morpholinyl]methyl]-1,2-dihydro-3H-1,2,4-triazol-3-one], for which, in data set [3] (compared with Form II), the “thermodynamic stability compared with other crystalline forms” value is given as “superior thermodynamic stability”. Moreover, in data set [3] (compared with other crystalline forms), the hygroscopicity result is listed as “non-hygroscopic”. In addition, in data set [2], the solubility was 900 ± 100 µg/mL (≈ 1680 µM).
